Measured values reported in patent publication US7045147B1, “Controlled release peroral compositions of levosimendan” (Orion Corporation, priority 1998, dated 2006).

Key:
[1] = cited from earlier work
[2] = Steady-state clinical study: plasma levels of levosimendan and metabolite (II) after 7 days levosimendan administration; format: in vivo; details: human, po, 1 mg levosimendan orally three times a day for 7 days, healthy volunteers, formulation as Formulation 3 except 1 mg levosimendan and Avicel PH-200 51.0 mg, N 14, read-out: Mean plasma level of levosimendan (day 7)
Experimental: The steady-state plasma level for metabolite (II) can be measured for any composition by administering the composition of levosimendan to a volunteer or group of volunteers once or several times a day for several days until a steady state level of (II) is reached. The plasma levels of the active metabolite (II) can then be measured according to the procedure described in detail in Example 2.
The active metabolite (II) is added in 20 μl of phosphate buffer, pH 7.2 to 0.5 ml of analyte-free plasma. The amounts of analyte added are 0.100, 0.250, 0.500, 1.00, 2.50, 3.75, 5.00, 7.50 and 12.5 ng. After being vortexed for 20 seconds and left standing for 10 minutes, the 2500 pg of internal standard (R)-N-[4-(1,4,5,6-tetrahydro-4-ethyl-6-oxo-3-pyridazinyl)phenyl]acetamide is added in 20 μl of phosphate buffer, pH 7.2. The mixture is vortexed for 1 minute and left standing for 15 minutes. The calibration samples are alkalised with 50 μl of 0.1 M sodium hydroxide and vortexed for 20 seconds. […]
Determinations are carried out by using the selected reaction monitoring technique. […] The selected reaction monitoring chromatograms are recorded using a PE Sciex API 300 Data System.
Peak area ratios of analyte and its internal standard are plotted against concentrations. […] The limit of quantitation is 0.200 ng/ml. […]

[3] = Pharmacokinetics of levosimendan and its active metabolite (elimination half-life, absorption); format: in vivo, human; details: active first-pass metabolite of levosimendan
Excerpt: The hemodynamic effects of levosimendan in man are described in Sundberg, S. et al., Am. J. Cardiol., 1995; 75: 1061-1066. Pharmacokinetics of levosimendan in man after i.v. and oral dosing is described in Sandell, E. -P. et al., J. Cardiovasc. Pharmacol., 26(Suppl. I), S57-S62, 1995. The use of levosimendan in the treatment of myocardial ischemia is described in WO 93/21921. Clinical studies have confirmed the beneficial effects of levosimendan in heart failure patients.
Firstly, the elimination half-life of levosimendan in human is short, about 1 h. Therefore, using conventional immediate release oral formulations levosimendan should be administered frequently during the day. Secondly, the gastrointestinal absorption of levosimendan is rapid. Therefore, using immediate release oral formulations high peak plasma concentrations of levosimendan are reached rapidly and abruptly, typically within 1 hour. High plasma concentrations of levosimendan tend to increase heart rate which is an undesired effect in heart failure patients.
The discovery of the active metabolite and its formation route makes it now possible to design controlled release preparations which show a reduced occurrence of undesired effects and which are well suited for the treatment of heart failure patients.

concentration at 1 h ([2]; 1 h after the last dose (day 7)) [ng/mL]	concentration at 4 h ([2]; 4 h after the last dose (day 7)) [ng/mL]	Structure (SMILES)	time to reach peak plasma concentrations ([1]; immediate release oral formulations) [h]	elimination half-life ([1]; in human)	elimination half-life compared with levosimendan [3]
15.4	8.9	CC1CC(=O)NN=C1c1ccc(NN=C(C#N)C#N)cc1 (single isomer, unassigned; (-)) [Levosimendan, (−)-[[4-(1,4,5,6-tetrahydro-4-methyl-6-oxo-3-pyridazinyl)phenyl]hydrazono]propanedinitrile]	≤ 1	about 1 h	
		CC(=O)Nc1ccc(C2=NNC(=O)C[C@H]2C)cc1 [Metabolite (II), (R)-N-[4-(1,4,5,6-tetrahydro-4-methyl-6-oxo-3-pyridazinyl)phenyl]acetamide]			substantially longer than that of levosimendan
